“Also recorded” adds a separate entry of the source. Where a SMILES comes first, the peptide text is derived from it. [ ]: non-standard residue; d: D form. The star is where a group is joined. pGlu = O=C1CC[C@@H](C(=O)O)N1; Octanoyl = CCCCCCCC(=O)*
Assays:
TNF alpha [1] = assay: Expression of TNF alpha by B6 macrophage cells treated with LPS and palmitic acid; type: cell-based, mouse; conditions: for % reduction of TNF alpha: relative to cells treated with LPS and PA
Protocol: Macrophages originating from C57BL/6 mice were cultured at a density of 200,000 cells/mL in a 24-well plate (500 μl wells) and incubated at 37° C. and 5% CO2 overnight. Following incubation, culture media in certain experimental groups were replaced with fresh media containing 100 ng/mL LPS, followed by three hours incubation. Then, the media (LPS-containing or LPS-free) in certain experimental groups were replaced with fresh media containing ZEP4 at concentrations ranging from 3.125 to 100 μg/ml, followed by one-hour incubation. Next, palmitic acid (PA, 200 μM) was added to the appropriate wells and the plates were incubated for additional 24 hours, then the amount of TNF alpha in each well was measured. Reduction in TNF alpha production in the treatment groups was calculated relative to cells treated with LPS and PA (CLP200).
Macrophages originating from C57BL/6 mice were cultured at a density of 200,000 cells/mL in a 24-well plate (500 μl wells) and incubated at 37° C. and 5% CO2 overnight. Following incubation, media were replaced with fresh media containing 100 ng/mL LPS, followed by three hours incubation. The LPS-containing media in the treatment groups were then replaced with fresh media containing ZEP4 at 50 μg/ml, followed by one-hour incubation. Then, aliquots of palmitic acid (100, 200 or 400 μM) were added to appropriate wells. The plates were incubated for additional 24 hour and the amount of TNF alpha in each well was measured. Reduction in TNF alpha production in the treatment groups was calculated relative to cells treated with LPS and PA, according to the PA concentration.
Macrophage cells originating from C57BL/6 mice were cultured at a density of 200,000 cells/mL in a 24-well plate (500 μl wells) and incubated at 37° C. and 5% CO2 overnight. Following incubation, media in certain experimental groups were replaced with fresh media containing 100 ng/mL LPS, followed by three hours incubation. Then, the media (LPS-containing or LPS-free) in certain experimental groups were replaced with fresh media containing ZEP3 at a concentration ranging from 3.125 to 100 μg/ml, followed by one-hour incubation. Next, palmitic acid (200 μM) aliquots were added to the appropriate wells and the plates were incubated for additional 24 hours, then the amount of TNF alpha in each well was measured. Reduction in TNF alpha production in the treatment groups was calculated relative to cells treated with LPS and PA.

[2] = test system: oxazolone-induced atopic dermatitis (AD) mouse models; assay: Oxazolone-induced atopic dermatitis mouse model, clinical lesions; type: in vivo
Protocol: The effect of topical administration of ZEP3 (SEQ ID NO: 1), and its sodium salt form (ZEP3Na), and ZEP4 (SEQ ID NO: 2) was evaluated in oxazolone-induced atopic dermatitis (AD) mouse models. This model is widely used and well described in literature (Avci et al. 2013 Expert Opin Drug Discov. 8, 331-355; Petersen T. K. 2006, Basic Clin. Pharmacol. Toxicol. 99, 104-115) as an accepted animal model for evaluating drugs for AD therapy in humans.

TNF alpha [3] = assay: TNF alpha secretion in LPS treated human keratinocytes (ELISA); type: cell-based; conditions: for TNFα: ZEP3Na without DMSO; for Fold Change: refers to TNF-α concentration in sample #2; for % Inhibition: vs corresponding control group without peptide
Protocol: Methods: SCCE020 cells (EpiGRO™ Human Epidermal Keratinocytes) were grown in complete growth medium (EpiGRO™ Human Keratinocytes Complete Medium; Millipore Cat. #SCMK001) for 4 passages. At passage 5, cells were seeded (3*10^5 cells/well) in triplicates in a volume of 1 ml complete growth medium per well. Additional 3 control wells contained only medium without cells. Upon adherence, cell medium was replaced by basal medium containing L-Glutamine without supplements (starvation medium) and cells were starved overnight. The next day, 24 hours after seeding, the cells were treated with ZEP3 or ZEP3Na or appropriate diluent (PBS or DMSO). After 4 hours of incubation, LPS (from E. Coli 055: B5; Sigma Cat. #L6529-1MG) was added to the wells in final concentration of 20 or 30 μg/ml.
Cells were incubated for 24 hours in tissue culture incubator. After collecting cell supernatants from all wells, cells from treatment groups: 1, 2, 3, 8, 9, 10, 13, 14 (without DMSO groups) were pelleted and stored at −80° C. for further analyses. The cells were collected from as following: upon supernatants collection, the wells were rinsed with trypsin, then incubated with trypsin until they detached from the plate surface, centrifuged, washed with PBS and stored as a cell pellet. TNF-α concentration in the supernatants was measured by ELISA (Quantikine HS ELISA; R&D Systems Cat. #HSTA00D), in 5 replicates.
TNF alpha concentration in the samples was calculated according to the standard curve trend line equation: =0.063x+0.1718. Percent inhibition of TNF alpha production was calculated in each treatment group in comparison to the corresponding control group (same conditions, without peptide).

[4] = Oxazolone-induced atopic dermatitis mouse model, tolerability and bodyweights
Protocol: Method: Animals were sensitized by topical administration of oxazolone 2% in ethanol on the back at Day 0 after shaving and depilation of the animals (sensitization phase). Then a challenge was performed one week later by topical administration of oxazolone 1% in ethanol on the back and on right ear every 2 days at 10 occasions namely for total 3 weeks. The tested compounds were applied during the challenge phase every 2 days via the topical route as ready to use cream formulations. The surface of application was the same as for challenge (back+ear). 100 μL were deposited on the back and the back was smoothly massaged. Then, remaining formulation on finger glove was deposited on the internal face of the ear. Every other day, back skin and ears thickness were measured using caliper; and the following clinical scores were recorded from back skin: erythema and scaling. Animals were also weighed every other day (approximate bodyweights of a mouse at startup is about 20 g).
The formulations used for topical administration of the tested compound were: ZEP3 1% cream having pH 7.1 and comprising: Propylene glycol, Polysorbate 80, Edetate Disodium, Silicon dioxide (syloid), Methylparaben, White petrolatum, Isopropyl Myristate, Cetyl Alcohol and Glyceryl Monostearate. ZEP3Na 1% cream having pH 8.0 and comprising: Propylene glycol, Polysorbate 80, Edetate Disodium, Silicon dioxide (syloid), Methylparaben, White petrolatum, Isopropyl Myristate, Cetyl Alcohol and Glyceryl Monostearate. ZEP4 1% cream having pH 4.5 and comprising: Propylene glycol, Glycerin, Polysorbate 80, EDTA Disodium, Xanthan Gum, Silicon dioxide (syloid), Methylparaben, White petrolatum, Isopropyl Myristate, Cetyl Alcohol, Stearyl Alcohol, and Glyceryl Monostearate (kolliwax).

[5] = peptide 0.2 mg/ml, LPS 20 μg/ml
[6] = peptide 0.2 mg/ml, LPS 30 μg/ml
[7] = peptide 0.4 mg/ml, LPS 20 μg/ml

CCCCCCCC(=O)NCCCC[C@H](NC(=O)[C@H](Cc1c[nH]c2ccccc12)NC(=O)[C@H](CC(N)=O)NC(=O)[C@@H]1CCC(=O)N1)C(=O)O [ZEP3, pGlu-Asn-Trp-Lys(Octanoyl)-OH] ([pGlu]NWK(Octanoyl)-OH)
ED50 (reduction of TNF alpha expression) (TNF alpha [1]; macrophage cells treated with LPS 100 ng/mL and palmitic acid 200 μM, estimated): 51.94 µg/mL | TNF alpha (TNF alpha [1]; peptide 3.125 μg/ml, LPS 100 ng/mL, palmitic acid 200 μM, 24 hours): 41.98 pg/mL | % reduction of TNF alpha (TNF alpha [1]; peptide 3.125 μg/ml, LPS 100 ng/mL, palmitic acid 200 μM): 82.9% | TNF alpha (TNF alpha [1]; peptide 6.25 μg/ml, LPS 100 ng/mL, palmitic acid 200 μM, 24 hours): 75.52 pg/mL | % reduction of TNF alpha (TNF alpha [1]; peptide 6.25 μg/ml, LPS 100 ng/mL, palmitic acid 200 μM): 69.2% | TNF alpha (TNF alpha [1]; peptide 12.5 μg/ml, LPS 100 ng/mL, palmitic acid 200 μM, 24 hours): 74.83 pg/mL | % reduction of TNF alpha (TNF alpha [1]; peptide 12.5 μg/ml, LPS 100 ng/mL, palmitic acid 200 μM): 69.5% | TNF alpha (TNF alpha [1]; peptide 25 μg/ml, LPS 100 ng/mL, palmitic acid 200 μM, 24 hours): 61.57 pg/mL | % reduction of TNF alpha (TNF alpha [1]; peptide 25 μg/ml, LPS 100 ng/mL, palmitic acid 200 μM): 74.9% | TNF alpha (TNF alpha [1]; peptide 50 μg/ml, LPS 100 ng/mL, palmitic acid 200 μM, 24 hours): 106.75 pg/mL | % reduction of TNF alpha (TNF alpha [1]; peptide 50 μg/ml, LPS 100 ng/mL, palmitic acid 200 μM): 56.4% | TNF alpha (TNF alpha [1]; peptide 100 μg/ml, LPS 100 ng/mL, palmitic acid 200 μM, 24 hours): 176.22 pg/mL | % reduction of TNF alpha (TNF alpha [1]; peptide 100 μg/ml, LPS 100 ng/mL, palmitic acid 200 μM): 28.1% | TNF alpha (TNF alpha [1]; peptide control: peptide 100 μg/ml, no LPS, no palmitic acid): 10.44 pg/mL | Scaling: period of reduction ([2]; 1% cream topical, 50 mg/kg, scaling score of back skin): reduced from days 18 to 24 | Significant difference on back thickness vs. control group 1 ([2]; day 20): −25.5% | Significant difference on back thickness vs. control group 1 ([2]; day 24): −16.6% | Right ear thickness, significant difference in comparison to control ([2]; days 20, 22 and 28): −10.1 to −18.0% | Erythema scoring: days with a significant difference ([2]; vs control group): days 22 and 24 | total score: days with significant difference ([2]; vs control group): days 20, 24 and 28 | TNF alpha levels / production in LPS treated human keratinocytes (in words) (TNF alpha [3]; compared with cells stimulated with LPS alone): effectively diminished; also recorded: dose dependent inhibition | TNFα (TNF alpha [3]; peptide 0.02 mg/ml, LPS 20 μg/ml, ZEP3 in 0.025% DMSO): 9.6 pg/mL | Fold Change (TNF alpha [3]; peptide 0.02 mg/ml, LPS 20 μg/ml): 3.4 | TNFα (TNF alpha [3]; peptide 0.2 mg/ml, LPS 20 μg/ml, ZEP3 in 0.05% DMSO): 6.0 pg/mL | Fold Change (TNF alpha [3]; [5]): 2.1 | % Inhibition (TNF alpha [3]; [5]): 32% | TNFα (TNF alpha [3]; peptide 0.2 mg/ml, LPS 30 μg/ml, ZEP3 in 0.10% DMSO): 17.3 pg/mL | Fold Change (TNF alpha [3]; [6]): 6.1 | % Inhibition (TNF alpha [3]; [6]): 20% | TNFα (TNF alpha [3]; peptide 0.4 mg/ml, LPS 20 μg/ml, ZEP3 in 0.10% DMSO): 4.6 pg/mL | Fold Change (TNF alpha [3]; [7]): 1.6 | % Inhibition (TNF alpha [3]; [7]): 48% | tolerability ([4]; 50 mg/kg topical to atopic dermatitis induced mice): well tolerated | Bodyweights in comparison to the excipient ([4]; day 8 to day 28): behaved normally

Source: patent US11419913B2, “Pharmaceutical compositions for inhibiting inflammatory cytokines” (S.I.S. SHULOV INNOVATIVE SCIENCE LTD., priority 2018, dated 2022)
